Results on one compound are retold here after patent US20030181498A1, “Bicyclic heteroaryl compounds as inhibitors of the interaction between the integrin alpha4beta1 receptor and vcam-1 and/or fibronectin” (AstraZeneca AB, priority 2000, published 2003).

This assay addresses T1, integrin α4β1 expressed on the MOLT-4 cell membrane with fibronectin (Homo sapiens, UniProt P05556+P13612).
T1 construct: integrin α4β1 expressed on the MOLT-4 cell membrane; host or cells: MOLT-4 human T-lymphoblastic leukaemia cells
As to the kind of experiment: MOLT-4 cell/fibronectin adhesion assay. The format is cell-based. As to conditions: MOLT-4 cells, fibronectin-coated plates, 2 h at 37° C.; read-out: inhibitor at (inhibition of MOLT-4 cell adhesion to fibronectin). An excerpt:
MOLT4 cells—human T-lymphoblastic leukaemia cells European Collection of Anil Cell Cultures, Porton Down)
Fibronectin—purified from human plasma by gelatin-sepharose affinity chromatography according to the methods described in E. Nengvall, E. Ruoslahti, Int. J. Cancer, 1977, 20, pages 1-5 and J. Forsyth et al, Methods in Enzymology, 1992, 21 pages 311-316).
1.1.1 MOLT-4 Cell/Fibronectin Adhesion Assay.
The MOLT-4 cell/fibronectin adhesion assay was used to investigate the interaction of the integrin α4β1 expressed on the MOLT-4 cell membrane with fibronectin. Polystyrene 96 well plates were coated overnight at 4° C. with fibronectin, 100 μl of 10 μg/ml in PBS. Non-specific adhesion sites were blocked by adding 100 μl BSA, 20 mg/ml. After incubating for 1 h at room temperature, the solutions were aspirated. […] Adherent cells were quantified by a colorimetric acid phosphatase assay. […] After incubation for 1 h at 37° C., 50 μl sodium hydroxide (1M) was added to each well and the absorbance 405 nm was measured on a microplate spectrophotometer. Compounds which inhibited adhesion gave a lower absorbance reading. […] Percentage inhibition was calculated with respect to total (no inhibitor) and non-specific (no fibronectin) standards on each plate. […]

T1 sequence (P13612 34-1032): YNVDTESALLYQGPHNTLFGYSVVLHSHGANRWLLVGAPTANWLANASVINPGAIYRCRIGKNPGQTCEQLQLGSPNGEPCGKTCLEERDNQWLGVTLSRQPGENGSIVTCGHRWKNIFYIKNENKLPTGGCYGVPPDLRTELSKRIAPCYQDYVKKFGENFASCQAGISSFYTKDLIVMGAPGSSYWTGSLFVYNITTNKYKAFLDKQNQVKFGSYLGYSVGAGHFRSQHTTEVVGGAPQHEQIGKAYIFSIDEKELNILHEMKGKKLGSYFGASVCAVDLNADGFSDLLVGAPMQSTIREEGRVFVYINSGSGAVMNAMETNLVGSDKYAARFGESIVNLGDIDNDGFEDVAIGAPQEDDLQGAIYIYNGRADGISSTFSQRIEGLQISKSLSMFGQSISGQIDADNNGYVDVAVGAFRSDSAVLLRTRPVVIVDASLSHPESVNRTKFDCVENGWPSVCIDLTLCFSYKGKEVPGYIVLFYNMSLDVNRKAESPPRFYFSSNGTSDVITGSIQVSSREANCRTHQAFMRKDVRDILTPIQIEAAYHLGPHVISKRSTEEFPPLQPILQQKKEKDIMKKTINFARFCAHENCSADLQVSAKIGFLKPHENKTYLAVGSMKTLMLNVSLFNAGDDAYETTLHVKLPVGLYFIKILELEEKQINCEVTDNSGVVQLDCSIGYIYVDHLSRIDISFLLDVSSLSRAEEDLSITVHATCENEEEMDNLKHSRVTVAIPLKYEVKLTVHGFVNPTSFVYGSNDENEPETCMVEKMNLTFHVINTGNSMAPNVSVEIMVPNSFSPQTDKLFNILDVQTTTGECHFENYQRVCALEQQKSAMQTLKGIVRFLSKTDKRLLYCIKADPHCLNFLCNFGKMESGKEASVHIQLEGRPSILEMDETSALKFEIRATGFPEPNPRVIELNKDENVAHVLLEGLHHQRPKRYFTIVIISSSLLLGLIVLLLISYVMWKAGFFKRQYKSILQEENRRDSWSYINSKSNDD
T1 sequence (P05556 21-798): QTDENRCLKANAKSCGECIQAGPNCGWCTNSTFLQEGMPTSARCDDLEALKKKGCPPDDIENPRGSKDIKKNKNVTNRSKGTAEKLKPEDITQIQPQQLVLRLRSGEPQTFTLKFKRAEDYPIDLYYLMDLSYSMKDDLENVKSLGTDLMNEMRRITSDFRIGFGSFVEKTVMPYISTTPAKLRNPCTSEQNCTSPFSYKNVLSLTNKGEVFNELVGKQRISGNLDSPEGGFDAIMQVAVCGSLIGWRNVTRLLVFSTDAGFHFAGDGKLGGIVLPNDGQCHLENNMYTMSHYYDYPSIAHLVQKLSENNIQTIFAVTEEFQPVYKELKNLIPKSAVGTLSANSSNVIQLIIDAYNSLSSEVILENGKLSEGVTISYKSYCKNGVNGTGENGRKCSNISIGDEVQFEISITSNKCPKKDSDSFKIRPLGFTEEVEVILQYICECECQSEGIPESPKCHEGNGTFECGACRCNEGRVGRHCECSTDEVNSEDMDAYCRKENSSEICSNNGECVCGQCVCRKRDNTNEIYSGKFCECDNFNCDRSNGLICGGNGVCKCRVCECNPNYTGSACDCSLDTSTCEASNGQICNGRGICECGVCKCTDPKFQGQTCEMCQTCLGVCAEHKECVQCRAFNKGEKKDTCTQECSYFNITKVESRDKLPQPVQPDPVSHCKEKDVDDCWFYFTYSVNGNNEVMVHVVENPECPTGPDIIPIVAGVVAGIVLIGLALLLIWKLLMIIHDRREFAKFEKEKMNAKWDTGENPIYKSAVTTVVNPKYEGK

On to `COc1cc(CC(=O)Nc2ccc(=O)n(CCCCC(=O)O)c2)cc2oc(Nc3ccccc3)nc12` [Compound CV], for which the IC50 came to 1100 nM.
